Results from ChEMBL document CHEMBL3407416, “Discovery of (R)-8-(1-(3,5-difluorophenylamino)ethyl)-N,N-dimethyl-2-morpholino-4-oxo-4H-chromene-6-carboxamide (AZD8186): a potent and selective inhibitor of PI3Kβ and PI3Kδ for the treatment of PTEN-deficient cancers” (J Med Chem, 2015).
Active and inactive are the calls of the source. The rule behind the calls is not given here.

Experiments:
[1] = Fraction unbound in dog plasma; type: ADME, cell-free, Canis lupus familiaris
[2] = Volume of distribution in mouse at 5 umol/kg, iv administered as bolus dose in 20 to 30% DMA in PBS; type: ADME, organism-based; settings: in vivo
[3] = target: T1, Phosphatidylinositol 4,5-bisphosphate 3-kinase catalytic subunit beta isoform (Homo sapiens, UniProt P42338); experiment: Inhibition of human recombinant PI3Kbeta using PIP2 by Kinase-Glo Plus assay
T1 sequence (P42338 whole entry, canonical isoform): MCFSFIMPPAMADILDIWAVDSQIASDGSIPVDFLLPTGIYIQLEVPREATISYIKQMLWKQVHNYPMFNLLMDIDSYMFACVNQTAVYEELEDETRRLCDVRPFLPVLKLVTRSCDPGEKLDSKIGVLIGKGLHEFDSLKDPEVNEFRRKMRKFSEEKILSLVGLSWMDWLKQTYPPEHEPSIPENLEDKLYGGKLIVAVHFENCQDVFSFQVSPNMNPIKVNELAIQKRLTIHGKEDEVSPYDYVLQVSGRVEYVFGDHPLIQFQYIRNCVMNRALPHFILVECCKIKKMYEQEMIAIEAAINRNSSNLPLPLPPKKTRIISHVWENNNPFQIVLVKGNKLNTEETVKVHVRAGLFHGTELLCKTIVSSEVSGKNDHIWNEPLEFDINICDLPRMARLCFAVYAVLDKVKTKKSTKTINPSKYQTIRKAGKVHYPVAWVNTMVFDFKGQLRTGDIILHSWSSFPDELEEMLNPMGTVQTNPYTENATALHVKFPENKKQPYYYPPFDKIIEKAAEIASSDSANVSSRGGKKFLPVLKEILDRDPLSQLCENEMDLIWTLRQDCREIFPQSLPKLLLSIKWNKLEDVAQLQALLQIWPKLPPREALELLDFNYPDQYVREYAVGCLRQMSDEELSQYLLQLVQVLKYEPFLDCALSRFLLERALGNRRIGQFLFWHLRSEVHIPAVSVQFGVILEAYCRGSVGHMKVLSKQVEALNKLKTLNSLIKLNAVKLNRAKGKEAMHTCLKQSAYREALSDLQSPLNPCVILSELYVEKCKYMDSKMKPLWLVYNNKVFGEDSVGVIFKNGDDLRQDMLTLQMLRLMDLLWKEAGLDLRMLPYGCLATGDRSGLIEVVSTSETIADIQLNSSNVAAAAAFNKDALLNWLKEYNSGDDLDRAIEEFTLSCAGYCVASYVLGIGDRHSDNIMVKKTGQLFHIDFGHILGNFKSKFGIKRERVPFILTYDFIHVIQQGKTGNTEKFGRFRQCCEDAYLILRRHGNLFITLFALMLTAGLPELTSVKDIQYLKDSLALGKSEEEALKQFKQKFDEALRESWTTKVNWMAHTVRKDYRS

[4] = Clearance in dog at 5 umol/kg, iv administered as bolus dose in 20 to 30% DMA in PBS; type: ADME, organism-based, Canis lupus familiaris; settings: in vivo
[5] = AUC in mouse at 30 umol/kg, po administered as propylene glycol; type: ADME, organism-based; settings: plasma
[6] = target: T2, Phosphatidylinositol 4,5-bisphosphate 3-kinase catalytic subunit alpha isoform (Homo sapiens, UniProt P42336); experiment: Inhibition of human recombinant PI3Kalpha using PIP2 by Kinase-Glo Plus assay
Target sequence in this assay (P42336 whole entry, canonical isoform): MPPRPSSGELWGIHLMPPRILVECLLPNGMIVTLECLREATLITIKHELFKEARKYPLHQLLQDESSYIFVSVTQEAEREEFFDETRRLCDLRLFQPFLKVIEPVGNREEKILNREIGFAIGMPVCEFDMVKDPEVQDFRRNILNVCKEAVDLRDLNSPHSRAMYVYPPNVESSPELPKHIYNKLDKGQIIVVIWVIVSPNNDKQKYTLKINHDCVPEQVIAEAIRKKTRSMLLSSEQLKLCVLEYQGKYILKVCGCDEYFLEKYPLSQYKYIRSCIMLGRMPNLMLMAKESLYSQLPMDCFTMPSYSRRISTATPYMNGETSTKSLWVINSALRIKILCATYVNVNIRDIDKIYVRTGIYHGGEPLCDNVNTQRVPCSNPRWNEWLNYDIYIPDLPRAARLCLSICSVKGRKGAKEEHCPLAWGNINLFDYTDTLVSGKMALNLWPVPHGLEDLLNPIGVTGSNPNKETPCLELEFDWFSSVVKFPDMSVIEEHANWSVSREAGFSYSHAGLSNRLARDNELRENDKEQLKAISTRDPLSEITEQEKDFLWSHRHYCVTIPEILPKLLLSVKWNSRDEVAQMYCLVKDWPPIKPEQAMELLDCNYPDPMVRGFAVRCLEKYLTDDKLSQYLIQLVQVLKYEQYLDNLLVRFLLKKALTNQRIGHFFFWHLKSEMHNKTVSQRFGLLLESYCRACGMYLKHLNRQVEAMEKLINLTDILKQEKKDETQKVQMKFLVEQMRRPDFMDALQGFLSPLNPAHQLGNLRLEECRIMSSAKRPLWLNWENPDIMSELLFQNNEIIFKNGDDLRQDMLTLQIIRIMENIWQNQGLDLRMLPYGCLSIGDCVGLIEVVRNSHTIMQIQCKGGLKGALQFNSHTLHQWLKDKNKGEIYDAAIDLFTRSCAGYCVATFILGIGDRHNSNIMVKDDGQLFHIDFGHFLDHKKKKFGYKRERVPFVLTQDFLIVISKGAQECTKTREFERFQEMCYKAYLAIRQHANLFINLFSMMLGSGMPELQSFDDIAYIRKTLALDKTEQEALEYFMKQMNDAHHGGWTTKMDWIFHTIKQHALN

[7] = target: T2, Phosphatidylinositol 4,5-bisphosphate 3-kinase catalytic subunit alpha isoform; experiment: Inhibition of PI3Kalpha mutant human BT474 cells assessed as inhibition of Akt phosphorylation at […] after 2 hrs; type: cell-based; settings: bt-474
Target sequence in this assay (P42336 whole entry, looked up, canonical isoform): as the sequence (P42336 whole entry, canonical isoform) above

[8] = Fraction unbound in mouse plasma; type: ADME, cell-free
[9] = system: Mus musculus; experiment: Intrinsic clearance in mouse at 5 umol/kg, iv administered as bolus dose in 20 to 30% DMA in PBS; type: ADME, organism-based; settings: in vivo
[10] = target: T3, Phosphatidylinositol 4,5-bisphosphate 3-kinase catalytic subunit delta isoform (Homo sapiens, UniProt O00329); experiment: Inhibition of human recombinant PI3Kdelta using PIP2 by Kinase-Glo Plus assay
T3 sequence (O00329 whole entry): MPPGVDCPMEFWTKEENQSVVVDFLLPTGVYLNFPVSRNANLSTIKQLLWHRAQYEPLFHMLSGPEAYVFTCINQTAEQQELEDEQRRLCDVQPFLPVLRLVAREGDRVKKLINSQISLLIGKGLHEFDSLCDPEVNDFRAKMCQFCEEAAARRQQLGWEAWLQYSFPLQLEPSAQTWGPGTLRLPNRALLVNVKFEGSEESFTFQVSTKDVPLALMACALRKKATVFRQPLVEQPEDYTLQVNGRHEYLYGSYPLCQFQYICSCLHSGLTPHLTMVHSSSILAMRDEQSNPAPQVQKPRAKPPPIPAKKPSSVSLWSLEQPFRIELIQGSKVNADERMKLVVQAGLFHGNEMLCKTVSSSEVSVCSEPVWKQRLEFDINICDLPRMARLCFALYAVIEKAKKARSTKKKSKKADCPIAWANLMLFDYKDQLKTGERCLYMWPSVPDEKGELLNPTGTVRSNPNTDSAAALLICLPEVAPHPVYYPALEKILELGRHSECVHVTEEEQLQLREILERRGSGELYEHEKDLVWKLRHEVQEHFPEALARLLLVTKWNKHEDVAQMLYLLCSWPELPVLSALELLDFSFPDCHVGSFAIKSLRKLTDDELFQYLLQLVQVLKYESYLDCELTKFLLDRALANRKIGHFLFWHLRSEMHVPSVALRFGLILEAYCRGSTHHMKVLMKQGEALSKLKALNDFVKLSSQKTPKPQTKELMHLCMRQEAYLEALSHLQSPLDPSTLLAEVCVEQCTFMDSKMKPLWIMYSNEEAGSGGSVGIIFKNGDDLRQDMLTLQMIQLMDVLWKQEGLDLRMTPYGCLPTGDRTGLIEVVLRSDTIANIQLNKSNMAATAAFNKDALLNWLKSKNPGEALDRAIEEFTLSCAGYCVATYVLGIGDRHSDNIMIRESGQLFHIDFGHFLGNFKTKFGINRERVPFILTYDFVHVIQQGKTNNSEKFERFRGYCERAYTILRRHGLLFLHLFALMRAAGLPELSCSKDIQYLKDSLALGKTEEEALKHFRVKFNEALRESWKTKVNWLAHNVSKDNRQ

[11] = Fraction unbound in human plasma; type: ADME, cell-free
[12] = target: T1, Phosphatidylinositol 4,5-bisphosphate 3-kinase catalytic subunit beta isoform; experiment: Inhibition of PI3Kbeta in PTEN-null human MDA-MB-468 cells assessed as inhibition of Akt phosphorylation after 2 hrs; type: cell-based
[13] = Intrinsic clearance in cryopreserved human hepatocytes measured per 10^6 cells; type: ADME, cell-based, Hepatocyte; settings: read-out: CLH
[14] = Clearance in mouse at 5 umol/kg, iv administered as bolus dose in 20 to 30% DMA in PBS; type: ADME, organism-based; settings: in vivo
[15] = system: Canis familiaris; experiment: Intrinsic clearance in dog at 5 umol/kg, iv administered as bolus dose in 20 to 30% DMA in PBS; type: ADME, organism-based, Canis lupus familiaris; settings: in vivo
[16] = Volume of distribution in dog at 5 umol/kg, iv administered as bolus dose in 20 to 30% DMA in PBS; type: ADME, organism-based, Canis lupus familiaris; settings: in vivo
[17] = Lipophilicity, log D of the compound at pH 7.4 by shake-flask method; type: physicochemical; settings: buffer
[18] = Apparent permeability from apical to basolateral side of human Caco2 cells; type: ADME, cell-based; settings: Caco-2, read-out: permeability
[19] = Oral bioavailability in mouse at 30 umol/kg administered as propylene glycol; type: ADME, organism-based; settings: in vivo
[20] = Oral bioavailability in dog at 30 umol/kg administered as propylene glycol; type: ADME, organism-based, Canis lupus familiaris; settings: in vivo
[21] = target: Phosphatidylinositol 4,5-bisphosphate 3-kinase catalytic subunit gamma isoform (Homo sapiens, UniProt P48736); experiment: Inhibition of human recombinant PI3Kgamma using PIP2 by Kinase-Glo Plus assay
Phosphatidylinositol 4,5-bisphosphate 3-kinase catalytic subunit gamma isoform, sequence (P48736 whole entry, canonical isoform): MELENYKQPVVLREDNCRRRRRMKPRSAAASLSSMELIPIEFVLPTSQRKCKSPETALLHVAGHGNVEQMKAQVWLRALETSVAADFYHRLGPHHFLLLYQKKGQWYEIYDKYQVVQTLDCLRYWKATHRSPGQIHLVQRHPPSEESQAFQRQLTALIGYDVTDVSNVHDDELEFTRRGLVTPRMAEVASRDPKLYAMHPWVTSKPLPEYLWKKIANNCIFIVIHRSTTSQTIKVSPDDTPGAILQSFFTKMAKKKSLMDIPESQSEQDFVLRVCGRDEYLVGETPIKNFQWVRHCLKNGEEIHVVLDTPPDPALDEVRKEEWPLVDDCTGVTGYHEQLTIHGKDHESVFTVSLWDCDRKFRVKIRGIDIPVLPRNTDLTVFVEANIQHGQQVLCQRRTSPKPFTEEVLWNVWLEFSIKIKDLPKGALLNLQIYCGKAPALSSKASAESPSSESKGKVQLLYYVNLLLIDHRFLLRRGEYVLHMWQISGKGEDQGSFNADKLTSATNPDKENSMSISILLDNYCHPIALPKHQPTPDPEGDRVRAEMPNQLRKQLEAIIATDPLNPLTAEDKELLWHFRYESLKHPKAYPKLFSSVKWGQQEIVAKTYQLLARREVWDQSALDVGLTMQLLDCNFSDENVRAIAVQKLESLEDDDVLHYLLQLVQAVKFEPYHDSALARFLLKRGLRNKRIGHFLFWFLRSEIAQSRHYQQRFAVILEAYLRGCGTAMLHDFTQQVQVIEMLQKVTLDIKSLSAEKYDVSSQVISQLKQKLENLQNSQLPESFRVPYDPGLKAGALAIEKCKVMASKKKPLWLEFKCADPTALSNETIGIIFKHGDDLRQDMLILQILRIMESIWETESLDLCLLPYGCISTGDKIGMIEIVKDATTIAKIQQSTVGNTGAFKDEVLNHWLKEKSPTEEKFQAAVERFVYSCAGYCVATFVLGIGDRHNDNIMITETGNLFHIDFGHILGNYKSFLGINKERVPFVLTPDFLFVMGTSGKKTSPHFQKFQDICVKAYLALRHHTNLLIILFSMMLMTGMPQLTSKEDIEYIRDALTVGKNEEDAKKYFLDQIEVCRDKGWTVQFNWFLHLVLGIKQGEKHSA

[22] = system: BT-474; experiment: Selectivity ratio of IC50 for human PI3Kbeta in human MDA-MB-468 cells to IC50 for PI3Kalpha in human BT474 cells; type: cell-based
[23] = target: T3, Phosphatidylinositol 4,5-bisphosphate 3-kinase catalytic subunit delta isoform; experiment: Inhibition of PI3Kdelta in human Jeko B cells assessed as inhibition of Akt phosphorylation after 2 hrs; type: cell-based
[24] = target: T4, Voltage-gated inwardly rectifying potassium channel KCNH2 (Homo sapiens, UniProt Q12809); experiment: Inhibition of human ERG channel at 100 uM
T4 sequence (Q12809 whole entry): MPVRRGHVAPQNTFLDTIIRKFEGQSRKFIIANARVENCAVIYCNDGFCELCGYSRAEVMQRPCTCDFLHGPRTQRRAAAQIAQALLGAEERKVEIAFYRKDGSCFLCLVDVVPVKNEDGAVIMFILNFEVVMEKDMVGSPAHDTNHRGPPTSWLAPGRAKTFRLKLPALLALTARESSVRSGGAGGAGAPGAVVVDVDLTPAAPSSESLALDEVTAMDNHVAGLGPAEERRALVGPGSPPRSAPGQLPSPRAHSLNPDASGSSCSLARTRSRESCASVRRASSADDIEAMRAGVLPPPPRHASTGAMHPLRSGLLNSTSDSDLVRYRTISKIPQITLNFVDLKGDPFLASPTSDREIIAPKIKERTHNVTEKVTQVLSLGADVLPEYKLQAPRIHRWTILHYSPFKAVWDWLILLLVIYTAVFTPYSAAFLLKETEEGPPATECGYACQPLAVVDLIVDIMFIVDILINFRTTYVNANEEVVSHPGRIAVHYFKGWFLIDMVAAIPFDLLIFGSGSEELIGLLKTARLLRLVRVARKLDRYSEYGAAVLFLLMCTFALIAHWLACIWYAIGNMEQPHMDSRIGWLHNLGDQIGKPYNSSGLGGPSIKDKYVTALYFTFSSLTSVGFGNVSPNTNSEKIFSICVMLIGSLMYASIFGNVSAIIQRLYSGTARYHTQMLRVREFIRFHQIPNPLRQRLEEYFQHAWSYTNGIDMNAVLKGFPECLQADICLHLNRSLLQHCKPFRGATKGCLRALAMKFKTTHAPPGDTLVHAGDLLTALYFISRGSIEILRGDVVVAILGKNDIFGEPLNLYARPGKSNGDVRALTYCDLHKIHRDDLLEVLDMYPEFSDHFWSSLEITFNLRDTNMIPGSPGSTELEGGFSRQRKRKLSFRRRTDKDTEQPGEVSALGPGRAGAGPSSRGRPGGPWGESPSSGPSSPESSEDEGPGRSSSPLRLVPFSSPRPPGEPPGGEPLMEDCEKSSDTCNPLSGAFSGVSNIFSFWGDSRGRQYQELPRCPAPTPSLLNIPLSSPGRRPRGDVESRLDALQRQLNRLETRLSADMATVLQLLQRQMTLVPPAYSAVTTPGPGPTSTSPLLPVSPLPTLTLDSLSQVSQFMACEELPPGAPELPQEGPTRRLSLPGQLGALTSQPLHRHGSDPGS

[25] = system: Mus musculus; experiment: Inhibition of Akt phosphorylation at Ser473 in PTEN-deficient human PC3 cells xenograft mouse model at 100 mg/kg, po single dose measured up to 8 hrs; type: functional, organism-based; parameters: dose 100 mg/kg; settings: PC-3
[26] = system: PC-3; experiment: Antitumor activity against human PC3 cells xenograft mouse model assessed as inhibition of tumor growth at 60 mg/kg, po bid in presence of 1-aminobenzotriazole; type: functional, organism-based; parameters: dose 60 mg/kg
[27] = system: PC-3; experiment: Antitumor activity against human PC3 cells xenograft mouse model assessed as inhibition of tumor growth at 30 mg/kg, po bid in presence of 1-aminobenzotriazole; type: functional, organism-based; parameters: dose 30 mg/kg
[28] = target: T4, Voltage-gated inwardly rectifying potassium channel KCNH2; experiment: Inhibition of human ERG channel

C[C@@H](Nc1cc(F)cc(F)c1F)c1cc(C(=O)N(C)C)cc2c(=O)cc(N3CCOCC3)oc12
fraction unbound [1]: 0.43
Vd [2]: 1.7 L/kg
IC50 [3]: 8 nM
clearance [4]: 28 mL/min/kg
AUC [5]: 1.5 µM·h
IC50 [6]: 140 nM
IC50 [7]: 900 nM
fraction unbound [8]: 0.28
clearance [9]: 99 mL/min/kg
IC50 [10]: 41 nM
fraction unbound [11]: 0.27
IC50 [12]: 6 nM
hepatocyte CLint [13]: < 5 µL/min/1e6 cells
clearance [14]: 137 mL/min/kg
clearance [15]: 16 mL/min/kg
Vd [16]: 2.2 L/kg
logD [17]: 2.3
Papp A→B [18]: 16 ×10⁻⁶ cm/s
bioavailability [19]: 42%
bioavailability [20]: 47%
IC50 [21]: 1500 nM

C[C@H](c1cc(C(=O)N(C)CCO)cc2c(=O)cc(N3CCOCC3)oc12)N(C)c1cc(F)cc(F)c1
fraction unbound [1]: 0.23
AUC [5]: 0.7 µM·h
IC50 [6]: 180 nM
IC50 [7]: 4700 nM
fraction unbound [8]: 0.15
IC50 [10]: 53 nM
fraction unbound [11]: 0.17
hepatocyte CLint [13]: < 3 µL/min/1e6 cells
logD [17]: 2.1
Papp A→B [18]: 7 ×10⁻⁶ cm/s
IC50 [21]: 1200 nM

CN(C)C(=O)c1cc(CNc2cc(F)cc(F)c2)c2oc(N3CCOCC3)cc(=O)c2c1
IC50 [3]: 8 nM
IC50 [6]: 93 nM
IC50 [7]: 3200 nM
Ratio IC50 [22]: 100
IC50 [10]: 80 nM
IC50 [12]: 35 nM
hepatocyte CLint [13]: < 3 µL/min/1e6 cells
logD [17]: 2.2
IC50 [21]: 3200 nM

C[C@@H](Nc1cc(F)cc(F)c1)c1cc(C(=O)N(C)C)cc2c(=O)cc(N3CCOCC3)oc12 [AZD-8186]
fraction unbound [1]: 0.31
Vd [2]: 1.3 L/kg
clearance [4]: 36 mL/min/kg
AUC [5]: 1.2 µM·h
IC50 [23]: 17 nM
IC50 [6]: 35 nM
IC50 [7]: 752 nM
fraction unbound [8]: 0.16
clearance [9]: 73 mL/min/kg
IC50 [10]: 12 nM
inhibition (INH) [24]: Not Active
fraction unbound [11]: 0.19
inhibition [25]: Active
hepatocyte CLint [13]: 4 µL/min/1e6 cells
inhibition [26]: Active
inhibition [27]: Active
clearance [14]: 77 mL/min/kg
clearance [15]: 11 mL/min/kg
Vd [16]: 2.2 L/kg
logD [17]: 2.3
Papp A→B [18]: 8 ×10⁻⁶ cm/s
bioavailability [19]: 18%
bioavailability [20]: 23%
IC50 [21]: 675 nM

C[C@H](c1cc(C(=O)N2CCC(O)CC2)cc2c(=O)cc(N3CCOCC3)oc12)N(C)c1cc(F)cc(F)c1
fraction unbound [1]: 0.23
IC50 [3]: 7 nM
AUC [5]: 0.8 µM·h
IC50 [6]: 370 nM
IC50 [7]: 4800 nM
fraction unbound [8]: 0.18
IC50 [10]: 82 nM
fraction unbound [11]: 0.17
IC50 [12]: 12 nM
hepatocyte CLint [13]: < 3 µL/min/1e6 cells
logD [17]: 2.4
Papp A→B [18]: 4.6 ×10⁻⁶ cm/s
IC50 [21]: 1600 nM

C[C@@H](Nc1cccc(Cl)c1F)c1cc(C(=O)N(C)C)cc2c(=O)cc(N3CCOCC3)oc12
fraction unbound [1]: 0.26
Vd [2]: 1.7 L/kg
IC50 [3]: 5 nM
AUC [5]: 0.9 µM·h
IC50 [6]: 28 nM
IC50 [7]: 500 nM
clearance [9]: 64 mL/min/kg
IC50 [10]: 22 nM
fraction unbound [11]: 0.15
IC50 [12]: 20 nM
hepatocyte CLint [13]: < 3 µL/min/1e6 cells
clearance [14]: 81 mL/min/kg
logD [17]: 2.3
Papp A→B [18]: 21 ×10⁻⁶ cm/s
bioavailability [19]: 19%
IC50 [21]: 320 nM

C[C@H](c1cc(C(=O)N(C)C)cc2c(=O)cc(N3CCOCC3)oc12)N(C)c1cc(F)cc(F)c1
fraction unbound [1]: 0.16
Vd [2]: 2 L/kg
clearance [4]: 27 mL/min/kg
IC50 [28]: 19000 nM
AUC [5]: 8.6 µM·h
IC50 [6]: 280 nM
IC50 [7]: 3000 nM
fraction unbound [8]: 0.1
clearance [9]: 37 mL/min/kg
IC50 [10]: 73 nM
fraction unbound [11]: 0.12
hepatocyte CLint [13]: < 4 µL/min/1e6 cells
clearance [14]: 34 mL/min/kg
clearance [15]: 17 mL/min/kg
Vd [16]: 2.2 L/kg
logD [17]: 2.4
Papp A→B [18]: 42 ×10⁻⁶ cm/s
bioavailability [19]: 68%
bioavailability [20]: 31%
IC50 [21]: 3500 nM

C[C@@H](Nc1ccc(F)c(F)c1)c1cc(C(=O)N(C)C)cc2c(=O)cc(N3CCOCC3)oc12
fraction unbound [1]: 0.34
Vd [2]: 1.7 L/kg
IC50 [3]: 7 nM
AUC [5]: 0.8 µM·h
IC50 [6]: 170 nM
IC50 [7]: 2500 nM
fraction unbound [8]: 0.25
clearance [9]: 57 mL/min/kg
IC50 [10]: 32 nM
fraction unbound [11]: 0.27
IC50 [12]: 17 nM
hepatocyte CLint [13]: < 3 µL/min/1e6 cells
clearance [14]: 112 mL/min/kg
logD [17]: 1.9
Papp A→B [18]: 6.5 ×10⁻⁶ cm/s
bioavailability [19]: 19%
IC50 [21]: 2500 nM

C[C@H]1CN(c2cc(=O)c3cc(C(=O)N(C)C)cc([C@@H](C)Nc4cc(F)cc(F)c4)c3o2)CCO1
fraction unbound [1]: 0.2
Vd [2]: 2.2 L/kg
IC50 [3]: 4 nM
clearance [4]: 69 mL/min/kg
AUC [5]: 3.3 µM·h
IC50 [6]: 12 nM
IC50 [7]: 110 nM
fraction unbound [8]: 0.12
clearance [9]: 53 mL/min/kg
IC50 [10]: 12 nM
fraction unbound [11]: 0.14
IC50 [12]: 0.4 nM
hepatocyte CLint [13]: < 3 µL/min/1e6 cells
clearance [14]: 76 mL/min/kg
clearance [15]: 15 mL/min/kg
Vd [16]: 2.5 L/kg
logD [17]: 2.7
Papp A→B [18]: 14 ×10⁻⁶ cm/s
bioavailability [19]: 50%
bioavailability [20]: 5%
IC50 [21]: 140 nM

C[C@@H](Nc1cc(F)cc(Cl)c1)c1cc(C(=O)N(C)C)cc2c(=O)cc(N3CCOCC3)oc12
fraction unbound [1]: 0.14
Vd [2]: 3.5 L/kg
AUC [5]: 0.8 µM·h
IC50 [6]: 25 nM
IC50 [7]: 170 nM
fraction unbound [8]: 0.04
clearance [9]: 147 mL/min/kg
IC50 [10]: 28 nM
fraction unbound [11]: 0.06
hepatocyte CLint [13]: 12 µL/min/1e6 cells
clearance [14]: 134 mL/min/kg
logD [17]: 2.8
Papp A→B [18]: 11 ×10⁻⁶ cm/s
bioavailability [19]: 23%
IC50 [21]: 210 nM
